Test [1] has as its target T1, human vasopressin V1a receptor (Homo sapiens, UniProt P37288). Description: Functional assay on human vasopressin V1a receptor expressing cell line (intracellular Ca2+ fluorescence). In kind it is cell-based. The following applies: 1321N1 cells, (Arg8)-vasopressin at EC80; read-out: IC50 (nM) on hV1a cell line. The procedure: Functional Assay to Test Compounds on Human Vasopressin V1a Receptor Expressing Cell Line
The ordinary secondary messenger pathway of the measured GPCR receptor was used, the endogenous Gq-associated system.
Using 30,000 cells/plate, compounds were measured on 96-well plates. The buffer composition of the measurements was the following (expressed in mM): 140 NaCl, 5 KCl, 2 CaCl2), 2 MgCl2, 10 glucose, 10 HEPES (4-(2-hydroxyethyl)-1-piperazine-ethanesulfonic acid), 2 probenecid, pH=7.4. FLIPR Calcium 5 kit (Molecular Devices) was used as fluorescent dye, the medium was not removed prior to filling with the dye and the cells were not washed out either before or after. The incubation was performed at room temperature, the final concentration of DMSO was 1%. The materials to be measured were administered in 15 to 20 minutes pretreatment, at least two parallels of each compound in each concentration was measured.
Fluorescence signal was used to determine the intracellular Ca^2+ level, the reader was FlexStation II96. […] The fluorescence signal was logged in every 1.4 seconds for 1 minute. The reference compounds used were the following: (Arg^8)-vasopressin as agonist at concentration of EC80, determined for each plate, and relcovaptan as antagonist at 1 μM. The % of inhibition at each concentration and the IC50 value of the compounds were determined where a concentration line was also measured.
The total AVP concentration-response curve was recorded on each plate. The effect of compounds measured was expressed by percentage of relative inhibition compared to control response. […] The average IC50 values were calculated from at least three independent measurements in all cases.

The target in test [2] is T1, human vasopressin V1a receptor. In words: Human vasopressin V1a receptor binding assay. The following applies: 1321N1 cell membranes, [3H]vasopressin; read-out: Ki (nM) on hV1a cell line. The procedure:
Human Vasopressin V1a Receptor Binding Assay
Cells were suspended in preparative buffer (50 mM Tris, 1 mM EDTA, 0.1 mM PMSF) and homogenized with glass homogenizing potter. To separate the raw membrane fraction two consecutive centrifugation procedures (40,000 g for 20 minutes at 4° C.) were executed, then the membrane was taken into the preparatory buffer during a final washing step, it was divided into aliquots which were stored at −80° C. until the time of measurement.
To determine the final affinity value, the results of at least two independent experiments were taken into account.
Non-specific binding values were determined in the presence of unlabeled 1.2×10^−6 M (Arg^8)-vasopressin. Samples were incubated in a total volume of 0.33 ml for 60 minutes at 27° C. Membrane-bound and free ligands were separated by filtration through a 0.5% polyethyleneimine-impregnated UniFilter® GF/B™. After drying the filter plates, 40 μl Microscint-20 (Packard) scintillation cocktail was added to the samples. Finally, radioactivity was measured using MicroBeta^2 Microplate Counter (Perkin Elmer).
During fitting, the asymptotes are not fixed. The K values (inhibition constant) are given with Cheng-Prusoff equation Ki=IC50/[1+(L/KD)] wherein [L] is the radioligand concentration used in the experiment and [KD] is the affinity of the radioactively labelled ligand for the given receptor. The KD is determined beforehand using the Scatchard curve.

Where a name gives a salt, the structure may show the parent alone.

T1 sequence (P37288 whole entry): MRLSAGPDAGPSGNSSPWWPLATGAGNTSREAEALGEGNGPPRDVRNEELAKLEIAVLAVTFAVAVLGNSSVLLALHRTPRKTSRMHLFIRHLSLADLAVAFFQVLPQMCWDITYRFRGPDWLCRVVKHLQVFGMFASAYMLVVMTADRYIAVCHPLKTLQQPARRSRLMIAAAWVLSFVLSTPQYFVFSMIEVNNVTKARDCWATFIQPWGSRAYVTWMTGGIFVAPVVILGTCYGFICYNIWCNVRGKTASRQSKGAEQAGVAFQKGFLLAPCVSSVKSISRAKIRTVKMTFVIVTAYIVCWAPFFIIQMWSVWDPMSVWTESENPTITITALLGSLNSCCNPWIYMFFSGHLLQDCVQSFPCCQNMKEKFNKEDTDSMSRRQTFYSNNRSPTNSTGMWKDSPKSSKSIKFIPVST

One may read the IC50 as the concentration needed to halve the response being measured. By Ki is commonly meant a measure of affinity in units of concentration, obtained from inhibition or displacement. Turning to `O=C(N[C@@H]1Cc2cc(Cl)ccc2-n2c(nnc2[C@H]2CC[C@H](Oc3ccccn3)CC2)C1)C1CCC(F)(F)CC1` [Example 221, N-{(5R)-8-chloro-1-[trans-4-(pyridin-2-yloxy)cyclohexyl]-5,6-dihydro-4H-[1,2,4]triazolo[4,3-a][1]benzazepin-5-yl}-4,4-difluorocyclohexanecarboxamide], in test [1], the IC50 is 9.8 nM. Besides, in test [2], the Ki was found to be 0.9 nM.

For the compound `CC(C)CN[C@H]1Cc2cc(Cl)ccc2-n2c(nnc2[C@H]2CC[C@H](Oc3ccccn3)CC2)C1` [Example 161, (5S)-8-chloro-N-(2-methylpropyl-1-[trans-4-pyridin-2-yloxy)cyclohexyl]-5,6-dihydro-4H-[1,2,4]triazolo[4,3-a][1]benzazepin-5-amine], in test [1], the IC50 is 34 nM. In test [2], the Ki was found to be 1.8 nM.

Consider `NCC(=O)N[C@H]1Cc2cc(Cl)ccc2-n2c(nnc2[C@H]2CC[C@H](Oc3ccccn3)CC2)C1` [Example 11, N-{(5S)-8-chloro-1-[trans-4-(pyridin-2-yloxy)cyclohexyl]-5,6-dihydro-4H-[1,2,4]triazolo[4,3-a][1]benzazepin-5-yl}glycinamide], for which, in test [1], the 50% inhibitory concentration (IC50) was 480 nM. Besides, the Ki in test [2] came out at 32 nM.

For `O=C(N[C@H]1Cc2cc(Cl)ccc2-n2c(nnc2[C@H]2CC[C@H](Oc3ccccn3)CC2)C1)C1CC1` [Example 119, N-{(5S)-8-chloro-1-[trans-4-(pyridin-2-yloxy)cyclohexyl]-5,6-dihydro-4H-[1,2,4]triazolo[4,3-a][1]benzazepin-5-yl}cyclopropanecarboxamide], in test [1], the IC50 is 111 nM. Besides, in test [2], the Ki was found to be 27 nM.

As to `COC1Cc2cc(C(F)(F)F)ccc2-n2c(nnc2[C@H]2CC[C@H](Oc3ccccn3)CC2)C1` (stereo partly drawn) [Example 50, 5-methoxy-1-[trans-4-(pyridin-2-yloxy)cyclohexyl]-8-(trifluoromethyl)-5,6-dihydro-4H-[1,2,4]triazolo[4,3-a][1]benzazepine], in test [1], the IC50 was 20 nM. In addition, in test [2], the Ki turned out to be 2.7 nM.

As for `O/N=C1/Cc2cc(Cl)ccc2-n2c(nnc2[C@H]2CC[C@H](Oc3ccccn3)CC2)C1` [Example 208, 8-chloro-N-hydroxy-1-[trans-4-(pyridin-2-yloxy)cyclohexyl]-4H-[1,2,4]triazolo[4,3-a][1]benzazepin-5(6H)-imine], the IC50 in test [1] was found to be 2.2 nM. Moreover, the Ki in test [2] was found to be 0.1 nM.

Take `O=C1Cc2ccccc2-n2c(nnc2[C@H]2CC[C@H](Oc3ccccn3)CC2)C1` [Example 102, 1-[trans-4-(pyridin-2-yloxy)cyclohexyl]-4H-[1,2,4]triazolo[4,3-a][1]benzazepin-5(6H)-one]: the half-maximal inhibitory concentration (IC50) in test [1] stood at 23 nM. The Ki in test [2] amounted to 5.9 nM.

Turning to `CCOC1Cc2cc(Cl)ccc2-n2c(nnc2[C@H]2CC[C@H](Oc3ccccn3)CC2)C1` (stereo partly drawn) [Example 131, 8-chloro-5-ethoxy-1-[trans-4-(pyridin-2-yloxy)cyclohexyl]-5,6-dihydro-4H-[1,2,4]triazolo[4,3-a][1]benzazepine], the IC50 in test [1] was determined as 0.7 nM. Also, the Ki in test [2] was 0.3 nM.

Consider `CC(C)NC1Cc2cc(C#N)ccc2-n2c(nnc2[C@H]2CC[C@H](Oc3ccccn3)CC2)C1` (stereo partly drawn) [Example 82, 5-(propan-2-ylamino)-1-[trans-4-(pyridin-2-yloxy)cyclohexyl]-5,6-dihydro-4H-[1,2,4]triazolo[4,3-a][1]benzazepin-8-carbonitrile trifluoroacetate], for which the IC50 in test [1] was determined as 445 nM. For the same compound, the Ki in test [2] was determined as 29 nM.

Consider `CC(C)(C)OC(=O)NC1Cc2ccccc2-n2c(nnc2[C@H]2CC[C@H](Oc3ccccn3)CC2)C1` (stereo partly drawn) [Example 142, Tert-butyl {1-[trans-4-(pyridin-2-yloxy)cyclohexyl]-5,6-dihydro-4H-[1,2,4]triazolo[4,3-a][1]benzazepin-5-yl}carbamate], for which the IC50 in test [1] was determined as 225 nM. Besides, the Ki in test [2] is 14.3 nM.

Take `CN(C)CCC(=O)N[C@@H]1Cc2cc(Cl)ccc2-n2c(nnc2[C@H]2CC[C@H](Oc3ccccn3)CC2)C1` [Example 179, N-{(5R)-8-chloro-1-[trans-4-(pyridin-2-yloxy)cyclohexyl]-5,6-dihydro-4H-[1,2,4]triazolo[4,3-a][1]benzazepin-5-yl}-N^3,N^3-dimethyl-β-alaninamide]: the IC50 in test [1] was found to be 1.4 nM. Further, the Ki in test [2] came to 0.2 nM.

As to `OC1Cc2ccccc2-n2c(nnc2[C@H]2CC[C@H](Oc3ccccn3)CC2)C1` (stereo partly drawn) [Example 107, 1-[trans-4-(pyridin-2-yloxy)cyclohexyl]-5,6-dihydro-4H-[1,2,4]triazolo[4,3-a][1]benzazepin-5-ol], in test [1], the IC50 worked out at 12 nM. Also, the Ki in test [2] was 1 nM.

Turning to `CC1(C(=O)N[C@@H]2Cc3cc(Cl)ccc3-n3c(nnc3[C@H]3CC[C@H](Oc4ccccn4)CC3)C2)COC1` [Example 226, N-{(5R)-8-chloro-1-[trans-4-(pyridin-2-yloxy)cyclohexyl]-5,6-dihydro-4H-[1,2,4]triazolo[4,3-a][1]benzazepin-5-yl}-3-methyloxetan-3-carboxamide], in test [1], the IC50 turned out to be 4.2 nM. Besides, the Ki in test [2] stood at 0.5 nM.

For the compound `CC(C)NC1Cc2cc(Br)ccc2-n2c(nnc2[C@H]2CC[C@H](Oc3ccccn3)CC2)C1` (stereo partly drawn) [Example 40, 8-bromo-N-(propan-2-yl)-1-[trans-4-(pyridin-2-yloxy)cyclohexyl]-5,6-dihydro-4H-[1,2,4]triazolo[4,3-a][1]benzazepine-5-amine], the IC50 in test [1] came out at 8.4 nM. Also, the Ki in test [2] was determined as 0.9 nM.

For `CO[C@@H]1Cc2cc(F)ccc2-n2c(nnc2[C@H]2CC[C@H](Oc3ccccn3)CC2)C1` (single isomer, unassigned) [Example 176], the IC50 in test [1] is 1.1 nM. Moreover, the Ki in test [2] was 0.4 nM.

As to `CC(C)(C)OC(=O)NC1Cc2cc(Cl)ccc2-n2c(nnc2N2CCN(c3ncccc3Cl)CC2)C1` (stereo not shown) [Example 139, Tert-butyl {8-chloro-1-[4-(3-chloropyridin-2-yl)piperazin-1-yl]-5,6-dihydro-4H-[1,2,4]triazolo[4,3-a][1]benzazepin-5-yl}carbamate], the IC50 in test [1] was 130 nM. Further, the Ki in test [2] came to 9.3 nM.

As for `CCN(CC)[C@H]1Cc2cc(Cl)ccc2-n2c(nnc2[C@H]2CC[C@H](Oc3ccccn3)CC2)C1` [Example 137, (5S)-8-chloro-N,N-diethyl-1-[trans-4-(pyridin-2-yloxy)cyclohexyl]-5,6-dihydro-4H-[1,2,4]triazolo[4,3-a][1]benzazepin-5-amine], in test [1], the IC50 amounted to 9.2 nM. Moreover, the Ki in test [2] came out at 0.7 nM.

With `N#CCC(=O)OC1Cc2cc(Cl)ccc2-n2c(nnc2[C@H]2CC[C@H](Oc3ccccn3)CC2)C1` (stereo partly drawn) [Example 215, 8-chloro-1-[trans-4-pyridin-2-yloxy)cyclohexyl]-5,6-dihydro-4H-[1,2,4]triazolo[4,3-a][1]benzazepin-5-yl cyanoacetate], the IC50 in test [1] turned out to be 3.7 nM. In addition, the inhibition constant (Ki) in test [2] stood at 0.2 nM.

As to `CCO[C@]1(CC)CC[C@@H](c2nnc3n2-c2ccc(Cl)cc2CC2(C3)OCCO2)CC1` [Example 229, 8′-chloro-1′-(trans-4-ethoxy-4-ethylcyclohexyl)-4′H,6′H-spiro[1,3-dioxolane-2,5′-[1,2,4]triazolo[4,3-a][1]benzazepine]], in test [1], the IC50 was found to be 2.1 nM. For the same compound, in test [2], the Ki is 0.4 nM.

With `COC1Cc2cc(Cl)ccc2-n2c(nnc2[C@H]2CC[C@H](N3CCOCC3)CC2)C1` (stereo partly drawn) [Example 130, 8-chloro-5-methoxy-1-[trans-4-(morpholin-4-yl)cyclohexyl]-5,6-dihydro-4H-[1,2,4]triazolo[4,3-a][1]benzazepine], the half-maximal inhibitory concentration (IC50) in test [1] was determined as 6.1 nM. Besides, the inhibition constant Ki in test [2] is 2.4 nM.

Source of the values: patent US11298363B2, “Triazolobenzazepines as vasopressin V1a receptor antagonists” (RICHTER GEDEON NYRT., priority 2017, dated 2022).
